From patent publication US8202897B2, “Inhibitors of glutaminyl cyclases” (Probiodrug AG, priority 2007, dated 2012) come the findings set out here.

In one data set the target is glutaminyl cyclase (QC) (Homo sapiens, UniProt Q16769). Put plainly: QC inhibitor assay (fluorometric/spectrophotometric QC activity assay with inhibitor added).

The structures appear in SMILES notation.

The term IC50 denotes the point on the concentration scale where inhibition reaches its midpoint. Read a low IC50 as inhibition by little substance. As a reminder, the Ki is the dissociation constant of the complex between target and ligand, obtained from inhibition or displacement. Broadly, the melting point is the temperature, or range, at which the solid turns liquid.

glutaminyl cyclase (QC), sequence (Q16769 29-361): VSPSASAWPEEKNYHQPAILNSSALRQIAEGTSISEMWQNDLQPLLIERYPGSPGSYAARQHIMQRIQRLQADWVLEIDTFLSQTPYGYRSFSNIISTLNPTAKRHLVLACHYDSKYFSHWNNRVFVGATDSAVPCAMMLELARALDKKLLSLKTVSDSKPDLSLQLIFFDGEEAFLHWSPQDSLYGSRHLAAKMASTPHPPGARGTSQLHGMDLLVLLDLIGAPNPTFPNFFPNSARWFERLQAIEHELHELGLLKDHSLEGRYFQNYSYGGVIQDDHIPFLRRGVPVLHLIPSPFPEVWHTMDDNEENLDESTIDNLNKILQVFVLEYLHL
Protocol for glutaminyl cyclase (QC): All measurements were performed with a BioAssay Reader HTS-7000Plus for microplates (Perkin Elmer) at 30° C. QC activity was evaluated fluorometrically using H-Gln-βNA. The samples consisted of 0.2 mM fluorogenic substrate, 0.25 U pyroglutamyl aminopeptidase (Unizyme, Hørsholm, Denmark) in 0.2 M Tris/HCl, pH 8.0 containing 20 mM EDTA and an appropriately diluted aliquot of QC in a final volume of 250 μl. Excitation/emission wavelengths were 320/410 nm. The assay reactions were initiated by addition of glutaminyl cyclase. QC activity was determined from a standard curve of β-naphthylamine under assay conditions. One unit is defined as the amount of QC catalyzing the formation of 1 μmol pGlu-βNA from H-Gln-βNA per minute under the described conditions.
In a second fluorometric assay, QC was activity determined using H-Gln-AMC as substrate. Reactions were carried out at 30° C. utilizing the NOVOStar reader for microplates (BMG labtechnologies). The samples consisted of varying concentrations of the fluorogenic substrate, 0.1 U pyroglutamyl aminopeptidase (Qiagen) in 0.05 M Tris/HCl, pH 8.0 containing 5 mM EDTA and an appropriately diluted aliquot of QC in a final volume of 250 μl. Excitation/emission wavelengths were 380/460 nm. The assay reactions were initiated by addition of glutaminyl cyclase. […] The kinetic data were evaluated using GraFit software.
Samples consisted of the respective QC substrate, 0.3 mM NADH, 14 mM α-Ketoglutaric acid and 30 U/ml glutamate dehydrogenase in a final volume of 250 μl. […] All samples were measured at 30° C., using either the [sequence]luor Plus or the Sunrise (both from TECAN) reader for microplates. Kinetic data was evaluated using GraFit software.
For inhibitor testing, the sample composition was the same as described above, except of the putative inhibitory compound added. For a rapid test of QC-inhibition, samples contained 4 mM of the respective inhibitor and a substrate concentration at 1 KM. For detailed investigations of the inhibition and determination of Ki-values, influence of the inhibitor on the auxiliary enzymes was investigated first. […] The inhibitory constant was evaluated by fitting the set of progress curves to the general equation for competitive inhibition using GraFit software.

In turn, `COc1cc(N/C(=C/[N+](=O)[O-])NCCCn2ccnc2)cc(OC)c1OC` [Example 11, N-(1-(3-(1H-imidazol-1-yl)propylamino)-2-nitrovinyl)-3.4.5-trimethoxy-benzenamine] registered a melting point of 41 to 43 °C. On glutaminyl cyclase (QC), this molecule had an IC50 of 6.41 µM and a Ki of 0.74 µM.
Regarding `COc1ccc(N/C(=C/[N+](=O)[O-])NCCCn2ccnc2)c(OC)c1` [Example 10, N-(1-(3-(1H-imidazol-1-yl)propylamino)-2-nitrovinyl)-2.4-dimethoxy-benzenamine], on glutaminyl cyclase (QC), it took 8.89 µM to reach half-maximal inhibition (IC50) and the Ki came to 0.92 µM.
As for `O=[N+]([O-])/C=C(\NCCCn1ccnc1)Nc1ccc2c(c1)OCO2` [Example 9, N-(1-(3-(1H-imidazol-1-yl)propylamino)-2-nitrovinyl)benzo[d][1.3]dioxol-5-amine], on glutaminyl cyclase (QC), 7.93 µM corresponded to half-maximal inhibition (IC50) and affinity was put at a Ki of 0.95 µM.
Taken in the same sequence, the figures for `CCCCN/C(=C/[N+](=O)[O-])NCCCn1ccnc1` [Example 1, N-(3-(1H-imidazol-1-yl)propyl)-N-butyl-2-nitroethene-1.1-diamine] were 13.2 µM and 2.19 µM.
